# According to patent US9994547B2, “Heteroarylamide inhibitors of TBK1” (Takeda Pharmaceutical Company Limited, priority 2014, dated 2018):
# Target: Full length human TBK1 (Homo sapiens (Human), UniProt Q9UHD2)
# Assay: Inhibition of TBK1 Enzyme (Example A)
# Type: biochemical
# Details: -log(IC50), IC50 molar; 3 nM TBK1, 25 μM ATP, 60 min RT
# Method: Full length human TBK1 with an N-terminal His-tag was cloned into the pFastBacl vector and was transfected into Sf9 cells. 72 hours later the virus was harvested and amplified through two additional rounds of infections. Then 400 mL of the resulting virus stock was used to infect 10 L of Sf9 cells at a density of 2×10^6 cells/mL. Cell pellets were harvested 48 hours post infection and were lysed by freeze-thaw, homogenization and sonication in binding buffer (25 mM Tris pH7.6, 1 M NaCl, 10 mM imidazole, 0.5 mM TCEP) plus 0.1% Triton X-100 and complete protease inhibitor cocktail. The lysate was spun and the supernatant was purified with a HisTrap FF crude and a Superdex 200 pg column.
# TBK1 inhibition is determined using a 384 well plate format in buffer containing 20 mM Hepes, pH 7.4, 10 mM MgCl2, 1 mM EDTA, 0.01% Brij-L23, 1 mM DTT. Each test compound is prepared in DMSO using 2.5-fold serial dilutions for 11 data points, which are added to the buffer so that each dilution contains 1% DMSO. To each well is added 2 μL of 1 μM 5FAM-DRHDSGLDSMKDE-NH2 (in buffer), 2 μL of diluted test compound (1% DMSO in buffer), and 5 μL of 3 nM TBK1 and 25 μM ATP (in buffer). The reaction mixture is incubated at RT for 60 min, and quenched by adding 20 mM Hepes, pH 7.4, 10 mM MgCl2, 1 mM EDTA, 0.01% Brij-L23, 1 mM DTT+25 mM EDTA. To quantify the fluorescent-labeled substrate and product following reaction, the test plate is loaded on a Caliper LC-3000, which measures percent of conversion by microfluidic-based separation. Corresponding IC50 values are calculated by non-linear curve fitting of the compound concentrations and percent of inhibition to the standard IC50 equation and reported as pIC50, i.e., −log(IC50), where IC50 is the molar concentration.
# Sequence of Full length human TBK1 (Q9UHD2 whole entry): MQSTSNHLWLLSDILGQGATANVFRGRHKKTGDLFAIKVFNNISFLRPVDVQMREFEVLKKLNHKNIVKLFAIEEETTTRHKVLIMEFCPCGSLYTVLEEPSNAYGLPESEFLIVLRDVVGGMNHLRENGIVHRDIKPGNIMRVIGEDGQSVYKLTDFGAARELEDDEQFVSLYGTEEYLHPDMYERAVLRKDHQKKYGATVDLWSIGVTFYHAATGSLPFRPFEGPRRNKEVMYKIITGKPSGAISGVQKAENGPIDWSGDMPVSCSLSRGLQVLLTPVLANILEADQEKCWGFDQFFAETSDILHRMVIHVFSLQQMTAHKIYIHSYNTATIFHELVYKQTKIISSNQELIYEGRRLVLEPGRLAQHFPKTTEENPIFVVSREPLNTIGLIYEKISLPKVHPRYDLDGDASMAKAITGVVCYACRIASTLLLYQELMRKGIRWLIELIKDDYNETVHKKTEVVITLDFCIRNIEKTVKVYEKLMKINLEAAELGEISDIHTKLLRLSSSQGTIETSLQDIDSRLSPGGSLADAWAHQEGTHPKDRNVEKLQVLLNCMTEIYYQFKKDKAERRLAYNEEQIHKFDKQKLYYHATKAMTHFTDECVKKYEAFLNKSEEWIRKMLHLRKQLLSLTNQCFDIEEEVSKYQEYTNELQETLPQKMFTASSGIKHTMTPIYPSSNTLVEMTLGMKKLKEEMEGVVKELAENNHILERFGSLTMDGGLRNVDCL
row,Compound,TBK1 Inhibition (pIC50)
1,"C[C@H](O)[C@@H](Nc1cc(-c2cnc(NC(=O)C3CC3)cn2)cnc1C#N)C(=O)N(C)C [Example 38, N-(5-(6-cyano-5-(((2R,3S)-1-(dimethylamino)-3-hydroxy-1-oxobutan-2-yl)amino)pyridin-3-yl)pyrazin-2-yl)cyclopropanecarboxamide]",5.8
2,"N#Cc1ncc(-c2cnc(NC(=O)C3CC3)cn2)cc1NCC(=O)N1C[C@H](CO)C[C@H]1C(F)(F)F [Example 113, N-(5-(6-cyano-5-((2-((2S,4R)-4-(hydroxymethyl)-2-(trifluoromethyl)pyrrolidin-1-yl)-2-oxoethyl)amino)pyridin-3-yl)pyrazin-2-yl)cyclopropanecarboxamide]",7.6
3,"C[C@H](Nc1cc(-c2cnc(NC(=O)[C@@H]3C[C@H]3C)cn2)cnc1C#N)C(=O)N(C)C [Example 107, (1R,2R)-N-(5-(6-cyano-5-(((S)-1-(dimethylamino)-1-oxopropan-2-yl)amino)pyridin-3-yl)pyrazin-2-yl)-2-methylcyclopropanecarboxamide]",7.8
4,"C[C@H](Nc1cc(-c2cnc(NC(=O)C3CC3)cn2)cnc1C#N)C(=O)N1CCOC[C@@H]1C#N [Example 81, N-(5-(6-cyano-5-(((S)-1-((S)-3-cyanomorpholino)-1-oxopropan-2-yl)amino)pyridin-3-yl)pyrazin-2-yl)cyclopropanecarboxamide]",7.8
5,"CC1CN(C(=O)CNc2cc(-c3cnc(NC(=O)C4CC4)cn3)cnc2C#N)CCO1 (stereo not shown) [Example 103, N-(5-(6-cyano-5-((2-(2-methylmorpholino)-2-oxoethyl)amino)pyridin-3-yl)pyrazin-2-yl)cyclopropanecarboxamide]",6.8
6,"N#Cc1ncc(-c2cnc(NC(=O)C3CC3)cn2)cc1NCC(=O)N(CCO)CC(F)F [Example 72, N-(5-(6-cyano-5-((2-((2,2-difluoroethyl)(2-hydroxyethyl)amino)-2-oxoethyl)amino)pyridin-3-yl)pyrazin-2-yl)cyclopropanecarboxamide]",7.8
7,"N#Cc1ccc(-c2cnc(NC(=O)C3CC3)cn2)cc1NCC(=O)N1CCC(O)C1 (stereo not shown) [Example 27, N-(5-(4-cyano-3-((2-(3-hydroxypyrrolidin-1-yl)-2-oxoethyl)amino)phenyl)pyrazin-2-yl)cyclopropanecarboxamide]",6.9
8,"CN(C)C(=O)C(CC(F)F)Nc1cc(-c2cnc(NC(=O)C3CC3)cn2)cnc1C#N (stereo not shown) [Example 68, N-(5-(6-cyano-5-((1-(dimethylamino)-4,4-difluoro-1-oxobutan-2-yl)amino)pyridin-3-yl)pyrazin-2-yl)cyclopropanecarboxamide]",7.4
9,"CC1CC1C(=O)Nc1cnc(-c2ccc(C#N)c(NCC(=O)N(C)C)c2)cn1 (stereo not shown) [Example 4, N-(5-(4-cyano-3-((2-(dimethylamino)-2-oxoethyl)amino)phenyl)pyrazin-2-yl)-2-methylcyclopropanecarboxamide]",7.1
10,"C[C@H](Nc1cc(-c2cnc(NC(=O)C3CC3)cn2)cnc1C#N)C(=O)N(C)C [Example 129, (S)-N-(5-(6-cyano-5-((1-(dimethylamino)-1-oxopropan-2-yl)amino)pyridin-3-yl)pyrazin-2-yl)cyclopropanecarboxamide]",7.6
11,"CC(=O)N1CCN(C(=O)CNc2cc(-c3cnc(NC(=O)C4CC4)cn3)cnc2C#N)CC1 [Example 99, N-(5-(5-((2-(4-acetylpiperazin-1-yl)-2-oxoethyl)amino)-6-cyanopyridin-3-yl)pyrazin-2-yl)cyclopropanecarboxamide]",6.0
12,"CC(C#N)N(C)C(=O)[C@H](C)Nc1cc(-c2cnc(NC(=O)C3CC3)cn2)cnc1C#N (stereo partly drawn) [Example 69, N-(5-(6-cyano-5-(((2S)-1-((1-cyanoethyl)(methyl)amino)-1-oxopropan-2-yl)amino)pyridin-3-yl)pyrazin-2-yl)cyclopropanecarboxamide]",7.7
13,"CN(C)C(=O)C(CC(F)(F)F)Nc1cc(-c2cnc(NC(=O)C3CC3)cn2)cnc1C#N (stereo not shown) [Example 138, N-(5-(6-cyano-5-((1-(dimethylamino)-4,4,4-trifluoro-1-oxobutan-2-yl)amino)pyridin-3-yl)pyrazin-2-yl)cyclopropanecarboxamide]",6.2
14,"C[C@H](Nc1cc(-c2cnc(NC(=O)C3CC3)cn2)cnc1C#N)C(=O)N1CCO[C@H]1C(F)(F)F [Example 61, N-(5-(6-cyano-5-((S)-1-oxo-1-((S)-2-(trifluoromethyl)oxazolidin-3-yl)propan-2-ylamino)pyridin-3-yl)pyrazin-2-yl)cyclopropanecarboxamide]",6.0
15,"CCN(C)C(=O)CNc1cc(-c2cnc(NC(=O)C3CC3)cn2)ccc1C#N [Example 20, N-(5-(4-cyano-3-((2-(ethyl(methyl)amino)-2-oxoethyl)amino)phenyl)pyrazin-2-yl)cyclopropanecarboxamide]",7.4
16,"CCN(C)C(=O)[C@H](C)Nc1cc(-c2cnc(NC(=O)C3CC3)cn2)cnc1C#N [Example 112, (S)-N-(5-(6-cyano-5-((1-(ethyl(methyl)amino)-1-oxopropan-2-yl)amino)pyridin-3-yl)pyrazin-2-yl)cyclopropanecarboxamide]",7.7
17,"CN(C)C(=O)[C@@H](CC(F)F)Nc1cc(-c2cnc(NC(=O)C3CC3)cn2)ccc1C#N [Example 33, (R)-N-(5-(4-cyano-3-((1-(dimethylamino)-4,4-difluoro-1-oxobutan-2-yl)amino)phenyl)pyrazin-2-yl)cyclopropanecarboxamide]",5.9
18,"COCCNC(=O)[C@H](C)Nc1cc(-c2cnc(NC(=O)C3CC3)cn2)ccc1C#N [Example 15, (S)-N-(5-(4-cyano-3-((1-((2-methoxyethyl)amino)-1-oxopropan-2-yl)amino)phenyl)pyrazin-2-yl)cyclopropanecarboxamide]",5.8
19,"C[C@H](Nc1cc(-c2cnc(NC(=O)C3CC3)cn2)ccc1C#N)C(=O)N1CCCC1 [Example 10, (S)-N-(5-(4-cyano-3-((1-oxo-1-(pyrrolidin-1-yl)propan-2-yl)amino)phenyl)pyrazin-2-yl)cyclopropanecarboxamide]",7.3
20,"CC[C@@H](Nc1cc(-c2cnc(NC(=O)C3CC3)cn2)cnc1C#N)C(=O)N(C)C [Example 31, (R)-N-(5-(6-cyano-5-((1-(dimethylamino)-1-oxobutan-2-yl)amino)pyridin-3-yl)pyrazin-2-yl)cyclopropanecarboxamide]",6.3
21,"CC(Nc1cc(-c2cnc(NC(=O)C3CC3)cn2)cnc1C#N)C(=O)N(C)CCF (stereo not shown) [Example 47, N-(5-(6-cyano-5-((1-((2-fluoroethyl)(methyl)amino)-1-oxopropan-2-yl)amino)pyridin-3-yl)pyrazin-2-yl)cyclopropanecarboxamide]",7.7

# Same assay, conditions: -log(IC50), IC50 molar; 3 nM TBK1, 25 μM ATP, 60 min RT; read-out: TBK1 Inhibition (pIC50) (converted)
row,Compound,IC50 [nM]
1,"N#Cc1ncc(-c2cnc(NC(=O)C3CC3)cn2)cc1NCC(=O)N1CCO[C@@H]1C(F)(F)F [Example 95, (R)-N-(5-(6-cyano-5-((2-oxo-2-(2-(trifluoromethyl)oxazolidin-3-yl)ethyl)amino)pyridin-3-yl)pyrazin-2-yl)cyclopropanecarboxamide]",631
